Data: patent US7772262B2, “Substituted benzoylguanidines, method for production and use thereof as medicament or diagnostic and medicament comprising the same” (sanofi-aventis Deutschland GmbH, priority 2004, dated 2010)
Counter-ions that a name gives are not always drawn.

molecular target: T1, human NHE-1 (Homo sapiens, UniProt P19634); experiment: NHE-1 inhibition, FLIPR assay of pHi recovery in transfected cell lines; assay type: cell-based; conditions: transfected LAP-1 cell line expressing human NHE-1, read-out: NHE1 inhibition IC50
T1 construct: expressed in transfected cells
Method: Determination of the NHE Inhibition
The inhibitory concentration IC50 for NHE-1 inhibition was determined as follows:
IC50 for NHE-1 inhibition was determined in an FLIPR assay by measurement of the pHi recovery in transfected cell lines which express human NHE-1.
The assay was carried out in an FLIPR (fluorometric imaging plate reader) with black-walled 96-well microtiter plates with clear bases.
The growth medium for the transfected cells (Iscove+10% fetal calf serum) additionally contained G418 as selection antibiotic in order to ensure the presence of the transfected sequences.
The actual assay started with the removal of the growth medium and addition of 100 μl of loading buffer per well (5 μM BCECF-AM [2′,7′-bis(carboxyethyl)-5- (and -6-)carboxyfluorescein, acetoxymethyl ester] in 20 mM NH4Cl, 115 mM choline chloride, 1 mM MgCl2, 1 mM CaCl2, 5 mM KCl, 20 mM HEPES, 5 mM glucose; pH 7.4 [adjusted with KOH]). The cells were then incubated at 37° C. for 20 minutes. This incubation led to loading of the cells with the fluorescent dye whose fluorescence intensity depends on pHi, and with NH4Cl which made the cells slightly alkaline.
The nonfluorescent dye precursor BCECF-AM is, as ester, membrane-permeable. The actual dye BCECF is not membrane-permeable but is liberated inside cells by esterases.
After this incubation for 20 minutes, the loading buffer which contained NH4Cl and free BCECF-AM was removed by washing three times in a cell washer (Tecan Columbus) with in each case 400 μl of washing buffer (133.8 mM choline chloride, 4.7 mM KCl, 1.25 mM MgCl2, 1.25 mM CaCl2, 0.97 mM K2HPO4, 0.23 mM KH2PO4, 5 mM HEPES, 5 mM glucose pH 7.4 [adjusted with KOH]). The residual volume which remained in the wells was 90 μl (50-125 μl possible). This washing step removed the free BCECF-AM and resulted, as a consequence of the removal of the external NH4^+ ions, in intracellular acidification (˜pHi 6.3-6.4).
This may eventually lead to cell death if it persists long enough.
It was important at this point that the washing buffer was sodium-free (<1 mM) because extracellular sodium ions would lead to an instantaneous recovery of the pHi through the activity of the cloned NHE isoforms. It was likewise important for all the buffers used (loading buffer, washing buffer, recovery buffer) not to contain any HCO3^− ions, because the presence of bicarbonate would lead to activation of interfering bicarbonate-dependent pHi regulatory systems present in the parental LAP-1 cell line.
The microtiter plates with the acidified cells were then (up to 20 minutes after the acidification) transferred to the FLIPR. In the FLIPR, the intracellular fluorescent dye was excited by light with a wavelength of 488 nm generated by an argon laser, and the measured parameters (laser power, illumination time and aperture of the CCD camera incorporated in the FLIPR) were chosen so that the average fluorescence signal per well was between 30 000 and 35 000 relative fluorescence units.
The actual measurement in the FLIPR started with a photograph being taken by the CCD camera every two seconds under software control. After ten seconds, the recovery of the intracellular pH was initiated by adding 90 μl of recovery buffer (133.8 mM NaCl, 4.7 mM KCl, 1.25 mM MgCl2, 1.25 mM CaCl2, 0.97 mM K2HPO4, 0.23 mM KH2PO4, 10 mM HEPES, 5 mM glucose; pH 7.4 [adjusted with NaOH]) by means of the 96-well pipettor incorporated in the FLIPR.
Positive control wells (100% NHE activity) were those to which pure recovery buffer is added, while negative controls (0% NHE activity) received washing buffer. Recovery buffer with twice the concentration of test substance was added to all the other wells. Measurement in the FLIPR terminated after 60 measurements (two minutes).
The raw data are exported into the ActivityBase program. This program firstly calculates the NHE activities for each tested substance concentration and, from these, the IC50 values for the substances. […]

T1 sequence (P19634 whole entry): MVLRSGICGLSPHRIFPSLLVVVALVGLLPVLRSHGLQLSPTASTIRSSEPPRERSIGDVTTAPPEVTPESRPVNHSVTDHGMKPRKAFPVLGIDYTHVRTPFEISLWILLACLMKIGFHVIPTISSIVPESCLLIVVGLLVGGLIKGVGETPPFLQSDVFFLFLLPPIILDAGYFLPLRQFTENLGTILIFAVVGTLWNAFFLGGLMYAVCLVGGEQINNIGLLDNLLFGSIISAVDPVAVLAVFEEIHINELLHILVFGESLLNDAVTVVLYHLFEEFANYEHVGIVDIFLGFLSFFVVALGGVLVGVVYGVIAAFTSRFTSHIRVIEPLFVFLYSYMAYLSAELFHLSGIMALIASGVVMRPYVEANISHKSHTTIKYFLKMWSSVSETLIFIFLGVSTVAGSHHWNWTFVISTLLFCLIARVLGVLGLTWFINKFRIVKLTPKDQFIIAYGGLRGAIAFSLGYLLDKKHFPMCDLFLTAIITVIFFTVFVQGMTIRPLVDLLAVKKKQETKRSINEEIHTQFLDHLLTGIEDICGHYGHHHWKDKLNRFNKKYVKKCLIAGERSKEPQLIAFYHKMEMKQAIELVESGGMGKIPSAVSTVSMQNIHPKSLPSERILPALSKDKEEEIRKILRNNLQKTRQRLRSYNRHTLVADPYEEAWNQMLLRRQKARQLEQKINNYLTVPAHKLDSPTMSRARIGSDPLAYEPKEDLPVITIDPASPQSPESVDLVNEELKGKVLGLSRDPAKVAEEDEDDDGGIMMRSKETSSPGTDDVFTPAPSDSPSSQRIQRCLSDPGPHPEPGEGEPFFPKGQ

Row | SMILES | IC50 [nM]
1 | Cc1cc(N2CCCCS2(=O)=O)c(S(C)(=O)=O)cc1C(=O)N=C(N)N [Example 2, N-[4-(1,1-Dioxo-[1,2]thiazinan-2-yl)-5-methanesulfonyl-2-methylbenzoyl]guanidine] | 144
2 | Cc1cc(N2CC(c3ccc(F)cc3)CS2(=O)=O)c(S(C)(=O)=O)cc1C(=O)N=C(N)N (single isomer, unassigned; enantiomer a) [Example 8, N-{4-[4-(4-Fluorophenyl)-1,1-dioxoisothiazolidin-2-yl]-5-methanesulfonyl-2-methlbenzoyl}guanidine, hydrochloride, enantiomer A] | 12
3 | Cc1cc(N2CC(c3ccc(F)cc3)CS2(=O)=O)c(S(C)(=O)=O)cc1C(=O)N=C(N)N.Cl (single isomer, unassigned; enantiomer b) [Example 9, N-{4-[4-(4-Fluorophenyl)-1,1-dioxoisothiazolidin-2-yl]-5-methanesulfonyl-2-methylbenzoyl}guanidine, hydrochloride, enantiomer B] | 23
4 | Cc1cc(N2CC(c3ccccc3)CS2(=O)=O)c(S(C)(=O)=O)cc1C(=O)N=C(N)N (single isomer, unassigned; enantiomer a) [Example 5, N-[4-(1,1-Dioxo-4-phenylisothiazolidin-2-yl)-5-methanesulfonyl-2-methylbenzoyl]guanidine, hydrochloride, enantiomer A] | 13
5 | Cc1cc(N2CCCS2(=O)=O)c(S(C)(=O)=O)cc1C(=O)N=C(N)N [Example 1, N-[4-(1,1-Dioxoisothiazolidin-2-yl)-5-methanesulfonyl-2-methyl-benzoyl]guanidine] | 38
6 | NC(N)=NC(=O)c1ccc(N2CCCCS2(=O)=O)c(C(F)(F)F)c1 [Example 14, N-[4-(1,1-Dioxo-1-[1,2]thiazinan-2-yl)-3-trifluoromethyl-benzoyl]guanidine] | 13

The next lines start with the values.

Row | IC50 [nM] | SMILES
7 | 45 | Cc1cc(N2CC(c3ccccc3)CS2(=O)=O)c(S(C)(=O)=O)cc1C(=O)N=C(N)N (single isomer, unassigned; enantiomer b) [Example 6, N-[4-(1,1-Dioxo-4-phenylisothiazolidin-2-yl)-5-methanesulfonyl-2-methylbenzoyl]guanidine, hydrochloride, enantiomer B]
8 | 1520 | Cc1cc(N2CCCN(C3CC3)S2(=O)=O)c(S(C)(=O)=O)cc1C(=O)N=C(N)N [Example 12, N-[4-(6-Cyclopropyl-1,1-dioxo-1-[1,2,6]thiadiazinan-2-yl)-5-methanesulfonyl-2-methlbenzoyl]guanidine]
9 | 20 | NC(N)=NC(=O)c1ccc(N2CCCS2(=O)=O)c(C(F)(F)F)c1 [Example 13, N-[4-(1,1-Dioxo-1-isothiazolidin-2-yl)-3-trifluoromethyl-benzoyl]guanidine]
10 | 195 | Cc1cc(N2C(C)(C)CCS2(=O)=O)c(S(C)(=O)=O)cc1C(=O)N=C(N)N [Example 3, N-[4-(3,3-Dimethyl-1,1-dioxoisothiazolidin-2-yl)-5-methanesulfonyl-2-methylbenzoyl]guanidine,]
11 | 19 | Cc1cc(N2CC(c3ccc(F)cc3)CS2(=O)=O)c(S(C)(=O)=O)cc1C(=O)N=C(N)N (stereo not shown) [Example 7, N-{4-[4-(4-Fluorophenyl)-1,1-dioxoisothiazolidin-2-yl]-5-methanesulfonyl-2-methylbenzoyl}guanidine, hydrochloride]
12 | 113 | Cc1cc(N2CCN(C3CC3)S2(=O)=O)c(S(C)(=O)=O)cc1C(=O)N=C(N)N [Example 11, N-[4-(5-Cyclopropyl-1,1-dioxo-1-[1,2,5]thiadiazolidin-2-yl)-5-methanesulfonyl-2-methlbenzoyl]guanidine]
13 | 6 | Cc1cc(N2CC(c3ccccc3)CS2(=O)=O)c(S(C)(=O)=O)cc1C(=O)N=C(N)N (stereo not shown) [Example 4, N-[4-(1,1-Dioxo-4-phenylisothiazolidin-2-yl)-5-methanesulfonyl-2-methylbenzoyl]guanidine, hydrochloride]
14 | 51 | Cc1cc(N2CC(c3ccccc3)CCS2(=O)=O)c(S(C)(=O)=O)cc1C(=O)N=C(N)N (stereo not shown) [Example 10, N-[4-(1,1-Dioxo-4-phenyl-1-[1,2]thiazinan-2-yl)-5-methanesulfonyl-2-methylbenzoyl]guanidine]

system: not listed separately; experiment: In vivo pharmacokinetics, "n in one method", i.v. bolus in beagle dog; conditions: iv; fasting male beagle dog, single i.v. bolus into jugular vein, about 1 mg/kg, plasma, co-administered (n in one)
Method: In vivo pharmacokinetics—profiling with the “n in one method”
The exposure data and the half-life were determined as characteristic pharmacokinetic data as follows:
The NHE-1 inhibitor of Example 9 of the invention and, as reference substance, the known NHE-1 inhibitor cariporide with the formula
[drawing 23] were dissolved in an aqueous, slightly acidic medium (water, pH 4, adjusted with 1M hydrochloric acid). The concentration of the aqueous formulation prepared in this way was about 1.5 mg of each substance per 1 g of solution. 10 ml of this formulation were administered as a single bolus by catheter into the jugular vein of a fasting male beagle dog (dose about 1 mg of each substance administered per kg of the dog's body weight). […]
The plasma samples were worked up and, after an HPLC separation, quantified by MS/MS. […] The exposures could be calculated using the WinNonlin computer program from the concentration-time plots (see FIG. 1) and compared with the exposure of the known NHE-1 reference substance. Since the various substances were measured in the same animal at the same time, the result was an accurate comparison of the compounds, and a ranking of the volumes of distribution was possible.

Row | half-life [h] | SMILES
15 | 4.6 | Cc1cc(N2CC(c3ccc(F)cc3)CS2(=O)=O)c(S(C)(=O)=O)cc1C(=O)N=C(N)N.Cl (single isomer, unassigned; enantiomer b) [Example 9, N-{4-[4-(4-Fluorophenyl)-1,1-dioxoisothiazolidin-2-yl]-5-methanesulfonyl-2-methylbenzoyl}guanidine, hydrochloride, enantiomer B]
16 | 3.3 | CC(C)c1ccc(C(=O)N=C(N)N)cc1S(C)(=O)=O.CS(=O)(=O)O [cariporide, reference compound]
